Marks after values point to notes of the source that are not given here.

Assay [1] addresses cloned mouse KCNQ2 (mKCNQ2) (Mus musculus, UniProt Q9Z351). Put plainly: KCNQ oocyte two-electrode voltage clamp, KCNQ2-mediated outward current. To be noted: expressed as percent increase over KCNQ current in controls, Xenopus oocytes. The class given is cell-based. The method, then:
The ability of compounds described in the present invention to open KCNQ channels and increase whole-cell outward (K^+) KCNQ-mediated currents was assessed under voltage-clamp conditions by determining their ability to increase cloned mouse KCNQ2 (mKCNQ2)-mediated, heteromultimeric KCNQ2/3 (KCNQ2/3)-mediated, and human KCNQ5 (hKCNQ5)-mediated outward currents heterologously expressed in Xenopus oocytes. Oocytes were prepared and injected using standard techniques; each oocyte was injected with approximately 50 nl of mKCNQ2, or hKCNQ5 cRNA. In the case of mKCNQ2/3 heteromultimeric channel expression, equal amounts (25-50 nL) of each cRNA were co-injected. […] Following injection, oocytes were maintained at 17° C. in ND96 medium consisting of (in mM): NaCl, 90; KCl, 1.0; CaCl2, 1.0; MgCl2, 1.0; HEPES, 5.0; pH 7.5. Horse serum (5%) and penicillin/streptomycin (5%) were added to the incubation medium. Recording commenced 2-6 days following mRNA injection. Prior to the start of an experiment oocytes were placed in a recording chamber and incubated in Modified Barth's Solution (MBS) consisting of (in mM): NaCl, 88; NaHCO3, 2.4; KCl, 1.0; HEPES, 10; MgSO4, 0.82; Ca(NO3)2, 0.33; CaCl2, 0.41; pH 7.5.
Oocytes were impaled with electrodes (1-2 MΩ) and standard 2-electrode voltage clamp techniques were employed to record whole-cell membrane currents. Recordings were accomplished using standard two-electrode voltage clamp techniques [Stuhmer et al., Methods in Enzymology, Vol. 207: 319-339 (1992)]. Voltage-clamp protocols typically consisted of a series of voltage steps 1-5 sec duration, in +10 mV steps from a holding potential of −90 mV to a maximal potential of +40 mV; records were digitized at 5 kHz and stored on a computer using pclamp data acquisition and analysis software (Axon Instruments). […]
(Two-electrode voltage clamp holds a large cell at a set potential and records current.)

Assay [2] concerns SSS-stimulated trigeminal field response. Put plainly: In vivo electrophysiology: superior sagittal sinus (SSS)-stimulated trigeminal field response model of migraine. Details: species or system rat. The source says: Male Long-Evans rats (Harlan, 250-400 g) were used in the experiments described in this example. Prior to testing, rats were allowed access to food and water ad libitum and were maintained on a 12:12-h light/dark cycle. Rats were group housed in an Association for Assessment and Accreditation of Laboratory Animal Care (AAALAC) accredited facility and cared for in strict compliance with all applicable regulations.
Rats were anesthetized with 1.2 g/kg i.p. urethane (#U-2500, Sigma Chemical Company, St. Louis, Mo.) and given supplemental urethane as needed. […]
Stimulated field responses were recorded in the trigeminal nucleus caudalis using Teflon coated stainless-steel microelectrodes (5 megaohms impedance, Frederick Haer, Brunswick, Me.) and amplified and filtered (0.1 Hz-10 kHz) using a differential amplifier (#IsoDAM8, World Precision Instruments, Sarasota, Fla.). […]
Three baseline measures (i.e., 100% of control), each consisting of 100 evoked trigeminal field potentials, were sampled prior to drug injection. […] Following injection of test substances, data were sampled for 1 hour, averaged into 5 minute bins (90 evoked potentials) and expressed as a percent change from average baseline values for the purposes of statistical analysis. Data were analyzed using repeated measures analyses of variance comparing vehicle and drug effects. […]

Chain of cloned mouse KCNQ2 (mKCNQ2) (Q9Z351 whole entry): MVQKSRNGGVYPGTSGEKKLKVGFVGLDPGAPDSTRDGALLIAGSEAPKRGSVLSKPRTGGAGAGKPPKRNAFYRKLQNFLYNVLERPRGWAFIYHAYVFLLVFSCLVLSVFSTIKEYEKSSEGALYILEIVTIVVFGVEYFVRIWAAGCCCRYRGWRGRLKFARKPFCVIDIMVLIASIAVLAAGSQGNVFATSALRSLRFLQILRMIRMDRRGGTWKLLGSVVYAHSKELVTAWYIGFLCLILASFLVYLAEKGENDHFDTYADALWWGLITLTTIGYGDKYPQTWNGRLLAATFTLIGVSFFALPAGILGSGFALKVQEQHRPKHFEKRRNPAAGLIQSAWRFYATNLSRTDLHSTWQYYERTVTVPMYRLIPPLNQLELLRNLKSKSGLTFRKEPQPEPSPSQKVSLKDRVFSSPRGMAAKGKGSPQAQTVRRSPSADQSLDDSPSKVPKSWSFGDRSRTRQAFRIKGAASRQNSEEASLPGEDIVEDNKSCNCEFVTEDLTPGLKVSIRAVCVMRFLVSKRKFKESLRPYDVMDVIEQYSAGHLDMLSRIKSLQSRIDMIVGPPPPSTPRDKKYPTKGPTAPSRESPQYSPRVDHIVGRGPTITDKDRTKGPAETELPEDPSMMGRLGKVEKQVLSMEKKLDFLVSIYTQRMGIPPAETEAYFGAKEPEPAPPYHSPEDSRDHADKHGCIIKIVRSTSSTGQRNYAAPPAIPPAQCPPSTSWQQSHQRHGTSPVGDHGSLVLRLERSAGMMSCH

As to `O=C(NCc1ccc(F)cc1)c1cnc(N2CCOCC2)nc1C1CCCCC1` [Example 1, 4-Cyclohexyl-2-(morpholin-1-yl)-N-[(4-fluorophenyl)methyl]pyrimidine-5-carboxamide], the “KCNQ2 Current” value in assay [1] (at 20 μM) is recorded as “+++ (+++ = >200%)”. As to `O=C(NCc1ccc(F)cc1)c1cnc(N2CCCC2)nc1C1CCCCC1` [Example 4, 4-Cyclohexyl-2-(pyrrolidin-1-yl)-N-[(4-fluorophenyl)methyl]pyrimidine-5-carboxamide], the “KCNQ2 Current” value in assay [1] (at 20 μM) is “+++ (+++ = >200%)”.

As for `CCCc1nc(N2CCCC2)ncc1C(=O)NCc1ccc(F)cc1` [Example 9, 4-(1-Propyl)-2-(pyrrolidin-1-yl)-N-[(4-fluorophenyl)methyl]pyrimidine-5-carboxamide], in assay [1] (at 20 μM), the “KCNQ2 Current” value was “+++ (+++ = >200%)”. Take `O=C(NCc1ccc(C(F)(F)F)cc1)c1cnc(N2CCCC2)nc1C(F)(F)F` [Example 19]: the “KCNQ2 Current” value in assay [1] (at 5 μM) is “++** (++ = 151-200%)”. In addition, the “decrease in field potential compared with vehicle” value in assay [2] (1 mg/kg i.v., 60 minutes following i.v. injection, rat SSS model of migraine, p=0.005) is 25.2%. Further, in assay [2] (i.v., rat, overall ANOVA p<0.001), the “reduction in the SSS-stimulated trigeminal field response” value is listed as “dose-dependent reduction”.

For `O=C(NCc1ccc(C(F)(F)F)cc1)c1cnc(NCc2ccccc2)nc1N1CCCC1` [Example 37, 2-(Phenylmethylamino)-4-(pyrrolidin-1-yl)-N-[[4-(trifluoromethyl)phenyl]methyl]pyrimidine-5-carboxamide], in assay [1] (at 20 μM), the “KCNQ2 Current” value is “++ (++ = 151-200%)”.

In the case of `O=C(NCc1ccc(C(F)(F)F)cc1)c1cnc(NCc2ccc(Cl)cc2)nc1N1CCCC1` [Example 39, 2-[(4-Chlorophenyl)methylamino]-4-(pyrrolidin-1-yl)-N-[[4-(trifluoromethyl)phenyl]methyl]-pyrimidine-5-carboxamide], the “KCNQ2 Current” value in assay [1] (at 20 μM) was “+ (+ = 125-150%)”.

For the origin of these results see patent US20020183335A1, “2, 4-disubstituted pyrimidine-5-carboxamide derivatives as KCNQ potassium channel modulators” (priority 2001, published 2002).
